Data set [1] has as its target DNA topoisomerase 2-alpha (Homo sapiens) (UniProt P11388). Briefly: Inhibition of human DNA topoisomerase 2alpha-mediated relaxation of supercoiled pRYG DNA at 25 uM after 30 mins by […].
The subject of the next data set is L1210. Briefly: Cytotoxicity against mouse L1210 cells. The data set is classed as functional, cell-based.
The next data set has as its system CCRF-CEM. Briefly: Cytotoxicity against human CEM cells. In kind it is functional, cell-based.
The target in data set [2] is DNA topoisomerase 2-alpha (Homo sapiens) (UniProt P11388). Briefly: Inhibition of human DNA topoisomerase 2alpha-mediated relaxation of supercoiled pRYG DNA at 10 uM after 30 mins by […].
Data set [3] in a line: Cytotoxicity against human Molt4/C8 cells. The data set is classed as functional, cell-based. The conditions noted are these: MOLT-4.
The target in data set [4] is DNA topoisomerase 2-alpha (Homo sapiens) (UniProt P11388). Briefly: Inhibition of human DNA topoisomerase 2alpha-mediated relaxation of supercoiled pRYG DNA at 100 uM after 30 mins by agarose gel electrophoresis.
For data set [5] the target is unchanged. Description: Inhibition of human DNA topoisomerase 2alpha-mediated relaxation of supercoiled pRYG DNA at 50 uM after 30 mins by […].
Data set [6] concerns Mus musculus. Description: Neurotoxicity in mouse at 100 mg/kg, ip after 0.5 hrs. The data set is classed as toxicity, organism-based. Further details: dose 100 mg/kg, route intraperitoneal. The conditions noted are these: in vivo.
The test system of data set [7] is Mus musculus. Description: Neurotoxicity in mouse at 30 mg/kg, ip after 4 hrs. Further details: dose 30 mg/kg, route intraperitoneal. The data set is classed as toxicity, organism-based. The note with it: in vivo.
For data set [8], the system named is Mus musculus. Briefly: Neurotoxicity in mouse at 100 mg/kg, ip after 4 hrs. In kind it is toxicity, organism-based. On the set-up: dose 100 mg/kg, route intraperitoneal. The conditions noted are these: in vivo.
Data set [9] relates to Mus musculus. Description: Neurotoxicity in mouse at 300 mg/kg, ip after 0.5 hrs. In kind it is toxicity, organism-based. Further details: dose 300 mg/kg, route intraperitoneal. The note with it: in vivo.
In data set [10] the test system is Mus musculus. Description: Neurotoxicity in mouse at 300 mg/kg, ip after 4 hrs. In kind it is toxicity, organism-based. On the set-up: dose 300 mg/kg, route intraperitoneal. The conditions noted are these: in vivo.

The IC50 is the concentration that gives 50% inhibition. A higher IC50 goes with weaker potency in that assay.

Molecules are shown by their SMILES. Calls of active or inactive are those of the source. The calls are words filed in the database; no cut-off is given here.

Sequence of DNA topoisomerase 2-alpha (Homo sapiens) (P11388 whole entry): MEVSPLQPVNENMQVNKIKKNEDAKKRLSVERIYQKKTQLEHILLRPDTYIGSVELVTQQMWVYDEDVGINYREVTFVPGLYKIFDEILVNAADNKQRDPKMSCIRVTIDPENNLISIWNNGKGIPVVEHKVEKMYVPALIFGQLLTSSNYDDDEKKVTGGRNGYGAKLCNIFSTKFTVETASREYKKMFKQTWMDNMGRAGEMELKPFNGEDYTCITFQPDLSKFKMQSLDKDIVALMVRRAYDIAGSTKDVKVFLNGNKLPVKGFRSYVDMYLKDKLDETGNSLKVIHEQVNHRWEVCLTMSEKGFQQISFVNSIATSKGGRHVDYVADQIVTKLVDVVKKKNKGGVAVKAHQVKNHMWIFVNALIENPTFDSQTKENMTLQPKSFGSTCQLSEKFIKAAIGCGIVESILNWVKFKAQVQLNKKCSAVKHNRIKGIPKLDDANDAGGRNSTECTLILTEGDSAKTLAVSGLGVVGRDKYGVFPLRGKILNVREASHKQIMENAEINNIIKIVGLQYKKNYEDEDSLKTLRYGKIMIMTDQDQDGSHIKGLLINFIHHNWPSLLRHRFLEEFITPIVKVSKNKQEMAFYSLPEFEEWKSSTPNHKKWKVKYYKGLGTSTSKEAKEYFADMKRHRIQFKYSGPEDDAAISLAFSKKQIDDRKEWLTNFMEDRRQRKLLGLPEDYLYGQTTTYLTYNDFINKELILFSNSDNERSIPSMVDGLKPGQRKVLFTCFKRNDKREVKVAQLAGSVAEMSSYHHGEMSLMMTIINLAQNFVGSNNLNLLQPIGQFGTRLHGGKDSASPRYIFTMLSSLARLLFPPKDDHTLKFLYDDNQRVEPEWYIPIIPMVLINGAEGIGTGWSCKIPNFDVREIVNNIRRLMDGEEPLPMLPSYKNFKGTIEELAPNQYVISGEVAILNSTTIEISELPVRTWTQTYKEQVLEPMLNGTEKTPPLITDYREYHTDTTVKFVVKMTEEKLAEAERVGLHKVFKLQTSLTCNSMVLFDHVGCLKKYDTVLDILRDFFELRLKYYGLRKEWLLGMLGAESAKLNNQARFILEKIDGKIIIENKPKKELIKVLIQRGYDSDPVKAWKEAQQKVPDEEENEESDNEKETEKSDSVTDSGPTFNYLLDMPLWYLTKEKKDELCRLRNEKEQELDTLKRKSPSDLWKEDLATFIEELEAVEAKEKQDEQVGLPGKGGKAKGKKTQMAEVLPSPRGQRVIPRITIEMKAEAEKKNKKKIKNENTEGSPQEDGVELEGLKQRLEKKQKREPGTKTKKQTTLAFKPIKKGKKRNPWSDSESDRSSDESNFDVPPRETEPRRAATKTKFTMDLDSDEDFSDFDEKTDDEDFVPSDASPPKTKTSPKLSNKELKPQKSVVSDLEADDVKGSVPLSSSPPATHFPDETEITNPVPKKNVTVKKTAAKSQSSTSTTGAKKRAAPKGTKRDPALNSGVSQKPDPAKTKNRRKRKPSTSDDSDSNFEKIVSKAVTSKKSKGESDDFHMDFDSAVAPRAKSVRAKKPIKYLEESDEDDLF

Take `CCOC(=O)[C@H](Cc1c[nH]c2ccccc12)NC(=O)/C=C\C(=O)N1C/C(=C\c2ccc([N+](=O)[O-])cc2)C(=O)/C(=C/c2ccc([N+](=O)[O-])cc2)C1`: the outcome in [1], in data set [2], in data set [4] and in [5] was Active. Also, the IC50 in the data set on L1210 is 620 nM; with CCRF-CEM, 190 nM; in data set [3] it was 270 nM.

For `CCOC(=O)CNC(=O)/C=C\C(=O)N1C/C(=C\c2ccccc2)C(=O)/C(=C/c2ccccc2)C1`, the outcome in data set [1], in data set [2], in data set [4] and in data set [5] was inactive. Moreover, the values for the IC50 (in the data set with L1210; in the data set on CCRF-CEM; in [3]) were 6100 nM, 1300 nM and 1400 nM, respectively.

Turning to `CCOC(=O)[C@H](C)NC(=O)/C=C\C(=O)N1C/C(=C\c2ccc([N+](=O)[O-])cc2)C(=O)/C(=C/c2ccc([N+](=O)[O-])cc2)C1`, the outcome in [1] and in data set [2] was inactive. The IC50 in the data set with L1210 worked out at 580 nM; in the data set on CCRF-CEM, 83 nM; in data set [3], 240 nM. Also, the outcome in [4] and in [5] was Active.

In turn, `C=CC(=O)N1C/C(=C\c2ccccc2)C(=O)/C(=C/c2ccccc2)C1` had an IC50 in [3] of 1420 nM.

On to `CCOC(=O)[C@H](CCSC)NC(=O)/C=C\C(=O)N1C/C(=C\c2ccc([N+](=O)[O-])cc2)C(=O)/C(=C/c2ccc([N+](=O)[O-])cc2)C1`, for which the result in data set [1], in [2], in data set [4] and in data set [5] was Active. Further, the IC50 amounted to 580 nM in the data set with L1210, 190 nM in the data set with CCRF-CEM and 250 nM in data set [3].

On to `CCOC(=O)[C@@H](NC(=O)/C=C\C(=O)N1C/C(=C\c2ccc([N+](=O)[O-])cc2)C(=O)/C(=C/c2ccc([N+](=O)[O-])cc2)C1)C(C)C`, for which the result in [1], in [4] and in [5] was Active. In addition, the values for the half-maximal inhibitory concentration (IC50) (in the data set on L1210; in the data set on CCRF-CEM; in data set [3]) were 440 nM, 170 nM and 220 nM, respectively. In addition, in data set [2], the outcome was inactive.

For the compound `CCOC(=O)[C@H](Cc1ccc(O)cc1)NC(=O)/C=C\C(=O)N1C/C(=C\c2ccc([N+](=O)[O-])cc2)C(=O)/C(=C/c2ccc([N+](=O)[O-])cc2)C1`, the result in data set [1], in data set [4] and in data set [5] was Active. Further, the IC50 in the data set with L1210 turned out to be 600 nM; in the data set on CCRF-CEM it was 170 nM; in [3] it was 280 nM. Moreover, the result in [2] was inactive.

Regarding `CCOC(=O)[C@H](CC(C)C)NC(=O)/C=C\C(=O)N1C/C(=C\c2ccccc2)C(=O)/C(=C/c2ccccc2)C1`, the outcome in data set [1], in data set [2], in data set [4] and in data set [5] was inactive. The IC50 is 4700 nM with L1210, 1200 nM in the data set on CCRF-CEM and 1100 nM in data set [3].

`CCOC(=O)[C@H](Cc1ccccc1)NC(=O)/C=C\C(=O)N1C/C(=C\c2ccc([N+](=O)[O-])cc2)C(=O)/C(=C/c2ccc([N+](=O)[O-])cc2)C1`: the result in [1], in [2], in [4] and in data set [5] was Active. Moreover, the IC50 amounted to 200 nM in the data set on L1210, 130 nM in the data set with CCRF-CEM and 240 nM in data set [3].

As to `O=C1/C(=C/c2ccc([N+](=O)[O-])cc2)CNC/C1=C\c1ccc([N+](=O)[O-])cc1`, the half-maximal inhibitory concentration (IC50) came to 32100 nM in the data set on L1210 and 8280 nM in [3].

For `CCOC(=O)[C@H](CC(C)C)NC(=O)/C=C\C(=O)N1C/C(=C\c2ccc([N+](=O)[O-])cc2)C(=O)/C(=C/c2ccc([N+](=O)[O-])cc2)C1`, the result in [1], in data set [2] and in data set [5] was inactive. The IC50 with L1210 was found to be 240 nM; in the data set with CCRF-CEM, 170 nM; in data set [3], 210 nM. Moreover, the result in data set [4] was Active. In addition, in the data set on Mus musculus [6], the Activity entry is recorded as “Non-toxic”.

Regarding `CCOC(=O)CNC(=O)/C=C\C(=O)N1C/C(=C\c2ccc([N+](=O)[O-])cc2)C(=O)/C(=C/c2ccc([N+](=O)[O-])cc2)C1`, the result in data set [1], in data set [2], in data set [4] and in data set [5] was Active. The IC50 with L1210 turned out to be 840 nM; in the data set on CCRF-CEM it was 110 nM; in [3], 230 nM. Also, the Activity entry in the data set with Mus musculus [7], with Mus musculus [8], in the data set on Mus musculus [9] and with Mus musculus [10] was “Non-toxic” each time.

For `C=CC(=O)N1C/C(=C\c2ccc([N+](=O)[O-])cc2)C(=O)/C(=C/c2ccc([N+](=O)[O-])cc2)C1`, half-maximal inhibition in data set [3] (IC50) required 150 nM.

Regarding `CCOC(=O)[C@H](Cc1ccc(O)cc1)NC(=O)/C=C\C(=O)N1C/C(=C\c2ccccc2)C(=O)/C(=C/c2ccccc2)C1`, the result in [1], in data set [2] and in data set [5] was inactive. Also, the results for the IC50 (with L1210; in the data set on CCRF-CEM; in data set [3]) were 4600 nM, 350 nM and 570 nM, respectively. The result in data set [4] was Active.

(Values after ChEMBL document CHEMBL1156097, “Design, synthesis and bioevaluation of novel maleamic amino acid ester conjugates of 3,5-bisarylmethylene-4-piperidones as cytostatic agents” (Bioorg Med Chem Lett, 2009).)
